Among the data in patent US20100311714A1, “1H-IMIDAZO[4,5-c]QUINOLINONE COMPOUNDS” (priority 2009, published 2010) are IC50 values, retold here.

The target in one experiment is T1, PI3K alfa (Homo sapiens, UniProt P42336).
T1 construct: His tag (C); made in house; host or cells: baculovirus BV1075; Tn5 (Trichoplusia ni) or TiniPro insect cells
The experiment in a line: PI3K alpha kinase assay (Kinase-Glo luminescence). It counts as biochemical. As to conditions: read-out: EPK_PI3Kalfa/IC50. The essentials:
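IC50 values come from a four-parameter logistic fit of percent inhibition at eight concentrations, typically 10 to 0.003 μM. Recombinant PI3Kα at 10 nM turned over 1 μM ATP with 10 μg/mL PI for 60 min at room temperature, and residual ATP was measured by Kinase-Glo.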
In general terms: Kinase-Glo reads ATP consumption through a luciferase reaction.

For a further experiment, the target named is T2, PI3K delta (Homo sapiens, UniProt O00329).
T2 construct: for the full-length p110-d subunit are generated and fused by overlapping PCR; His tag (C); made in house; host or cells: baculovirus BV1060; Tn5 (Trichoplusia ni) or TiniPro insect cells
The experiment in a line: PI3K delta kinase assay (Kinase-Glo luminescence). It counts as biochemical. As to conditions: read-out: EPK_PI3Kdelta/IC50. Put shortly: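 IC50s derive from 8-point inhibition curves fitted to a 4-parameter logistic model. Reaction: 10 nM purified p110δ/p85 iSH2 fusion, 1 μM ATP, 10 μg/mL PI substrate, pH 7.5 Tris buffer with MgCl2, NaCl, CHAPS and DTT, run 60 min at room temperature; remaining ATP read by Kinase-Glo luminescence.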

T2 sequence (O00329 with tags, fused parts or gaps limits assumed): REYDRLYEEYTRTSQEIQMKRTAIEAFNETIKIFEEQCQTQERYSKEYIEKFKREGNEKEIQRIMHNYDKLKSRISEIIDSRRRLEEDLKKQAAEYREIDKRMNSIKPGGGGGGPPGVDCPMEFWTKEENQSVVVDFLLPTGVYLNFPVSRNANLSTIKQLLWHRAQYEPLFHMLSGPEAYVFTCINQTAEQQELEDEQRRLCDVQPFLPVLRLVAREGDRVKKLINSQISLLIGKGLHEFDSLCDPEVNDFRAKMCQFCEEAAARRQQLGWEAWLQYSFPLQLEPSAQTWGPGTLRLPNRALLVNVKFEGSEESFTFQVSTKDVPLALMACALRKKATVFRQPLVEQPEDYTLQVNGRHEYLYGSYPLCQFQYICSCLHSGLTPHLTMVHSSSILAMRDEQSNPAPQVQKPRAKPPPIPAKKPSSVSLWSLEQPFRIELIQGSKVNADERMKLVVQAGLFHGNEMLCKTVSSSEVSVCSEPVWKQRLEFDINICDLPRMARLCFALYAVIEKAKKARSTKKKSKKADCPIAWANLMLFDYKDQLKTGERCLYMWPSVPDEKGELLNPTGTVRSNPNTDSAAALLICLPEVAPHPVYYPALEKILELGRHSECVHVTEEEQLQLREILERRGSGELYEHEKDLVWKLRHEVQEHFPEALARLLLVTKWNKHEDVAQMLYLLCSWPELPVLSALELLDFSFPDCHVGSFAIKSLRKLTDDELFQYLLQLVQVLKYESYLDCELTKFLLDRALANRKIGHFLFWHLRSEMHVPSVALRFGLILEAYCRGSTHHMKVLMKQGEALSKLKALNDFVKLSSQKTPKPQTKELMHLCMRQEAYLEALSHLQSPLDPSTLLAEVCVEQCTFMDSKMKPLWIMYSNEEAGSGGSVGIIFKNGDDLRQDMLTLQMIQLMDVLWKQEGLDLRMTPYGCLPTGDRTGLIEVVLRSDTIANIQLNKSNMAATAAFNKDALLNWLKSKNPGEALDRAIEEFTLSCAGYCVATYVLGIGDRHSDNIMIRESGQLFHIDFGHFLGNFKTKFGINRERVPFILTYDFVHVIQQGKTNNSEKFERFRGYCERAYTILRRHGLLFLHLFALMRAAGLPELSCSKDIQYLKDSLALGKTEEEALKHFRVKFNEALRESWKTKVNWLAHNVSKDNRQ
T1 sequence (P42336 with tags, fused parts or gaps limits assumed): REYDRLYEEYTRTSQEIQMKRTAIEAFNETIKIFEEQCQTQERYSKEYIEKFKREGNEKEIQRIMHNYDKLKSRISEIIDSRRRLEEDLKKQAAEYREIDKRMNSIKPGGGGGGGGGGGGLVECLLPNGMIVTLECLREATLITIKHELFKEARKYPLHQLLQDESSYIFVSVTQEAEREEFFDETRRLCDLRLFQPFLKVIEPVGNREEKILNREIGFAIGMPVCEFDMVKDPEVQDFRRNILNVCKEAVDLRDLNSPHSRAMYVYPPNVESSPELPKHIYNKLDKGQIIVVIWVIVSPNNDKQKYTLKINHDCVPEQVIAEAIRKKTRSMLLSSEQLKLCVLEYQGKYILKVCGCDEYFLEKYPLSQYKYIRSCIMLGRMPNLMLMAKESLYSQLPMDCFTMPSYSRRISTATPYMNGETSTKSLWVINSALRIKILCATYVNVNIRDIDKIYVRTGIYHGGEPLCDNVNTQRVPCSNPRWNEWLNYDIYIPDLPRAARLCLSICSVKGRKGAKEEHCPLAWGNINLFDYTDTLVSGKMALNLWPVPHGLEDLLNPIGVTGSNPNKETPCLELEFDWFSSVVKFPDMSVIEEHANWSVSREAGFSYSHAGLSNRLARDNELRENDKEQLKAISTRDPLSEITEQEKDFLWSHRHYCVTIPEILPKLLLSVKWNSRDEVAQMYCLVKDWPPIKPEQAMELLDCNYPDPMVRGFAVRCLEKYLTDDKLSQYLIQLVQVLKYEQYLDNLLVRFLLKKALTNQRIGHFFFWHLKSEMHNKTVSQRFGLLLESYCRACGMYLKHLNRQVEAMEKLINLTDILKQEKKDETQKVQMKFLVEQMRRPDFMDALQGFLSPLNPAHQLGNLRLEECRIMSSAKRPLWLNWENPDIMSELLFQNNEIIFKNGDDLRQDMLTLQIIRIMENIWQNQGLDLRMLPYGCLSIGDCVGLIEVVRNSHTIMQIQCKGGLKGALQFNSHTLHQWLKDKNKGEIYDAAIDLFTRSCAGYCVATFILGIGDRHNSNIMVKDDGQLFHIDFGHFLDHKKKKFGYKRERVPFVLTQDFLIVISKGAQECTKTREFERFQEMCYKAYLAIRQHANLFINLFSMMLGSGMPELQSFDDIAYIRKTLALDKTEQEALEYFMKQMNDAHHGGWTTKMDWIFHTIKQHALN

`CCNc1ncc(-c2ccc3ncc4c(c3c2)n(-c2ccc(N3CC[C@@H](O)C3)nc2C)c(=O)n4C)cc1COCC` [Example 34.4, 8-(5-Ethoxymethyl-6-ethylamino-pyridin-3-yl)-1-[6-((R)-3-hydroxy-pyrrolidin-1-yl)-2-methyl-pyridin-3-yl]-3-methyl-1,3-dihydro-imidazo[4,5-c]quinolin-2-one]: the IC50 at PI3K alfa came to 65.5 nM; at PI3K delta, 26 nM.
